From ChEMBL document CHEMBL1154188, “Kinase inhibitor data modeling and de novo inhibitor design with fragment approaches” (J Med Chem, 2009) come the findings set out here.

Assay [1] has as its target T1, Hepatocyte growth factor receptor (Homo sapiens, UniProt P08581). The assay can be described thus: Inhibition of recombinant MET by [gamma-33P]ATP based assay.
In assay [2] the target is Tyrosine-protein kinase ABL1 (Homo sapiens) (UniProt P00519). The assay can be described thus: Inhibition of recombinant ABL1 at 20 uM by [gamma-33P]ATP based assay.
Sequence of Tyrosine-protein kinase ABL1 (Homo sapiens) (P00519 whole entry): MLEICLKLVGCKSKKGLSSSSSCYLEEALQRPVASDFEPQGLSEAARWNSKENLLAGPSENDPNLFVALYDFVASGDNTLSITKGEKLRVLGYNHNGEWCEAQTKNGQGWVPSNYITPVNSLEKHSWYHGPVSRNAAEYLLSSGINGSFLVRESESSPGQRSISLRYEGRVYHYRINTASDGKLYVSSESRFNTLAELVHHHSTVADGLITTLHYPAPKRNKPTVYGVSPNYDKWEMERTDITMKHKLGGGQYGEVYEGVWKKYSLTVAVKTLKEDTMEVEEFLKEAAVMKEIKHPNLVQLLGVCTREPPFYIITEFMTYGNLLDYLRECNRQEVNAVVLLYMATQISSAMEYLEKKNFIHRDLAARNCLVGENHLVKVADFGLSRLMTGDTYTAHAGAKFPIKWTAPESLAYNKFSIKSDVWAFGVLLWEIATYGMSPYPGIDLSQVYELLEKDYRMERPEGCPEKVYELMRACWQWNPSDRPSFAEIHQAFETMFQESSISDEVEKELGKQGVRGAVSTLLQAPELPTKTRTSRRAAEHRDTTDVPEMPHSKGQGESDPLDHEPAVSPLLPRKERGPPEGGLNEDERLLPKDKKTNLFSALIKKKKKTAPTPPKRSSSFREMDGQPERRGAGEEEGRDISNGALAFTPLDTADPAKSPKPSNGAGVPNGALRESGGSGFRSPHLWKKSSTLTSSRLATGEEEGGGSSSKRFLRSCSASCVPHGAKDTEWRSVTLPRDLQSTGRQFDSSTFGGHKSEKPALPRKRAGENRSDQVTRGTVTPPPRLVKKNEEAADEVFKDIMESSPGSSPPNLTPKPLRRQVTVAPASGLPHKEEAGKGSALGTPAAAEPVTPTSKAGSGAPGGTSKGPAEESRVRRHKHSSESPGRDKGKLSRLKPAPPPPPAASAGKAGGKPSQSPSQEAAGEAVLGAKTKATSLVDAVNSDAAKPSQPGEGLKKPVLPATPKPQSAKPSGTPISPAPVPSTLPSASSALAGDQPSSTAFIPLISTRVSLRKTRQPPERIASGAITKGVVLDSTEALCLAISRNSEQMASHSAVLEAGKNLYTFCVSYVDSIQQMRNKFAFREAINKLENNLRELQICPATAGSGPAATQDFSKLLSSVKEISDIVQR
The target in assay [3] is Rho-associated protein kinase 2 (Homo sapiens) (UniProt O75116). The assay can be described thus: Inhibition of recombinant ROCK2 at 20 uM by [gamma-33P]ATP based assay.
Sequence of Rho-associated protein kinase 2 (Homo sapiens) (O75116 whole entry, looked up): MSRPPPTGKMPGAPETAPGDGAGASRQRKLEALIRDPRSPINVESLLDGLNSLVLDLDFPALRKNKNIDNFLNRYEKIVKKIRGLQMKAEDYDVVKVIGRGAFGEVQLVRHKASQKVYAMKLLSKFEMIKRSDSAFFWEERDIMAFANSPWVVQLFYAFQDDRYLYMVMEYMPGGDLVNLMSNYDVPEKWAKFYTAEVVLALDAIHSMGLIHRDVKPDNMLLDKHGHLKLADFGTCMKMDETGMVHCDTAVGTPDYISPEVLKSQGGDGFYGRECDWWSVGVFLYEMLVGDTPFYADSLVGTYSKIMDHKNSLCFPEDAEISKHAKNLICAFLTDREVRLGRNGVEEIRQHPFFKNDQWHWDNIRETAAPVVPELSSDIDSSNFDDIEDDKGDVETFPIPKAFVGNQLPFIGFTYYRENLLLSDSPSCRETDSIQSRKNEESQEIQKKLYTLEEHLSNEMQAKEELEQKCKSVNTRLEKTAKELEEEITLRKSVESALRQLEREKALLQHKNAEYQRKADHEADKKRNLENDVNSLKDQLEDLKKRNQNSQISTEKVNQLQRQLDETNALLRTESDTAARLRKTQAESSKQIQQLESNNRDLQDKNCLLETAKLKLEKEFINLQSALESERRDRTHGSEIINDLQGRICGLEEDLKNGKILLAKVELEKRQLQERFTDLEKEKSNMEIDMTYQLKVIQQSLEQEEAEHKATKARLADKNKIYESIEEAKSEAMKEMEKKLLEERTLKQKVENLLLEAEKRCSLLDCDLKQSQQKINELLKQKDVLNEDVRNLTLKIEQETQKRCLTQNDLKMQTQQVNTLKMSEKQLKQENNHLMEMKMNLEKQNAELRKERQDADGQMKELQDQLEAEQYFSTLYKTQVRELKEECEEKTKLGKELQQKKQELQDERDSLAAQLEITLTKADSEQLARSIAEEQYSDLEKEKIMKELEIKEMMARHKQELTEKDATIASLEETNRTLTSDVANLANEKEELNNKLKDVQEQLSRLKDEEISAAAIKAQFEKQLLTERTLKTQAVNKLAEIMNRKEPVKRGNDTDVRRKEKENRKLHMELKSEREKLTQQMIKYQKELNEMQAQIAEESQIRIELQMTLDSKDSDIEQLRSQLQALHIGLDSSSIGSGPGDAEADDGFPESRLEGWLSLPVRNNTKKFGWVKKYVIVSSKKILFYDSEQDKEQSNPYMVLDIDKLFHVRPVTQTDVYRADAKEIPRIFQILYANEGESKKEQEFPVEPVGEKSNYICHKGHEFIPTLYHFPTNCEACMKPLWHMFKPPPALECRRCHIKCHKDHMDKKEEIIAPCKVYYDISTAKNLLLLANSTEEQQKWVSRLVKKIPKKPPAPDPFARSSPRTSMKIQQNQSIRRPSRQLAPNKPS
Assay [4] addresses T1, Hepatocyte growth factor receptor. The assay can be described thus: Inhibition of recombinant MET at 20 uM by [gamma-33P]ATP based assay.
For assay [5], the target named is T2, Serine/threonine-protein kinase Chk2 (Homo sapiens, UniProt O96017). The assay can be described thus: Inhibition of recombinant CHK2 by [gamma-33P]ATP based assay.
T2 sequence (O96017 whole entry): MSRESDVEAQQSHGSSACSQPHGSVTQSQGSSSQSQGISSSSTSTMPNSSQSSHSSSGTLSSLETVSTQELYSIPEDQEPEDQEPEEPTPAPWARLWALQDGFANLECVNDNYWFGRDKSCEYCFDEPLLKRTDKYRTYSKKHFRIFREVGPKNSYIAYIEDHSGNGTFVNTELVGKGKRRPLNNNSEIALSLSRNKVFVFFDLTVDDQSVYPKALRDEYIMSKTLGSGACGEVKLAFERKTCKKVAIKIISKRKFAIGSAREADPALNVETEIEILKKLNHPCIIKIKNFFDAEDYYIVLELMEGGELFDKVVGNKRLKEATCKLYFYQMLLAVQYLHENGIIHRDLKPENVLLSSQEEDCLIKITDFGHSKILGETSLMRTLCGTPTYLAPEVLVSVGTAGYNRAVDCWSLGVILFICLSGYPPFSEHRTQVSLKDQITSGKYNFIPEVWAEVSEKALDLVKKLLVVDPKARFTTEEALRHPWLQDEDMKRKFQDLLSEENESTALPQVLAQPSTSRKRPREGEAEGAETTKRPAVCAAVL
Assay [6] concerns the target Ribosomal protein S6 kinase beta-1 (Homo sapiens) (UniProt P23443). The assay can be described thus: Inhibition of recombinant P70S6K at 20 uM by [gamma-33P]ATP based assay.
In assay [7] the target is T2, Serine/threonine-protein kinase Chk2. The assay can be described thus: Inhibition of recombinant CHK2 at 20 uM by [gamma-33P]ATP based assay.
Assay [8] has as its target Receptor-type tyrosine-protein kinase FLT3 (Homo sapiens) (UniProt P36888). The assay can be described thus: Inhibition of recombinant FLT3 at 20 uM by [gamma-33P]ATP based assay.

Sequence of Receptor-type tyrosine-protein kinase FLT3 (Homo sapiens) (P36888 whole entry): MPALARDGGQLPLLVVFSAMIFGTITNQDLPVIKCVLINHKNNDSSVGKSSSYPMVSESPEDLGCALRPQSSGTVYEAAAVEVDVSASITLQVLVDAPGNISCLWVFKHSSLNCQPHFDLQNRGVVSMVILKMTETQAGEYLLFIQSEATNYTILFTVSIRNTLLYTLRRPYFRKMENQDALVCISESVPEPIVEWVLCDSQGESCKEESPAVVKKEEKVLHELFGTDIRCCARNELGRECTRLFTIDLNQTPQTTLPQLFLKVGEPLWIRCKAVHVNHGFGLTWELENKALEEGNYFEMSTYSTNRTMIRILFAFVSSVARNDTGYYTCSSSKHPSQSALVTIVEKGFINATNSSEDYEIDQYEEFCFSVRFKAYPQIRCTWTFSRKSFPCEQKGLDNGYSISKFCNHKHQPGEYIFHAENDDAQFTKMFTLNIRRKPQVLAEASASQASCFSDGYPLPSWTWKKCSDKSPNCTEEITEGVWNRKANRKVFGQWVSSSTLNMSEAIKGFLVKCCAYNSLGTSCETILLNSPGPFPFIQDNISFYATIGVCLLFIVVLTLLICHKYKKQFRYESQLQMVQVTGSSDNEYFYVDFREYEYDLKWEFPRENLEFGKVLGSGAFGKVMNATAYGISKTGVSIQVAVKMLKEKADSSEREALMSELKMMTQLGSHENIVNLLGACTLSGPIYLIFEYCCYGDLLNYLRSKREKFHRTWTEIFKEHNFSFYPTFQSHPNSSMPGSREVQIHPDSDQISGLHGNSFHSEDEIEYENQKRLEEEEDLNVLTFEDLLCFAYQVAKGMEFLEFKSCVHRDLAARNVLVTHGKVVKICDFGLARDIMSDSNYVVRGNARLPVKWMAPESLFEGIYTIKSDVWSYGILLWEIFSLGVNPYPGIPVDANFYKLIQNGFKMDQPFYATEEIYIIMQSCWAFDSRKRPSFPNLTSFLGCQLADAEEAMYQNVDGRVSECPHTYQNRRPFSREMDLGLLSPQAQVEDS
Sequence of Ribosomal protein S6 kinase beta-1 (Homo sapiens) (P23443 whole entry, looked up): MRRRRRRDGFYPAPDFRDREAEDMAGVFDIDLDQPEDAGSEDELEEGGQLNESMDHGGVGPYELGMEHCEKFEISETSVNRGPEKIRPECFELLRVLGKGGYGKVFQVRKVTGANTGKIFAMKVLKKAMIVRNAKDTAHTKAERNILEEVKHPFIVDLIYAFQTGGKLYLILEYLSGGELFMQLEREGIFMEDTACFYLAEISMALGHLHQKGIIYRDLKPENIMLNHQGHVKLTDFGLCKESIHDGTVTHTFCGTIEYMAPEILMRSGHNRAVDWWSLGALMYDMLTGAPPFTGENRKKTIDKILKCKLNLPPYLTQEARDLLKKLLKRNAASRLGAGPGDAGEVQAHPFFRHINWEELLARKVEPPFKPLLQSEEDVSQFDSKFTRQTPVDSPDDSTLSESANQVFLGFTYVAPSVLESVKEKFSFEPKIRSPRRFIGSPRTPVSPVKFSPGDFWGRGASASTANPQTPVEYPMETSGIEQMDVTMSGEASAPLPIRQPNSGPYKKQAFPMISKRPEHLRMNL

What is called IC50 is the concentration that gives 50% inhibition. Usually inhibition stands for the change of the read-out against control, counted positive when it falls. For `Nc1ncc(-c2ccc(C(=O)NCC3CCNC3)cc2)nc1Oc1ccc2cc[nH]c2c1` (stereo unspecified), the values for the IC50 in assay [1] and in assay [5] were 3550 nM and 580 nM, respectively. Moreover, the inhibition in assay [2] is 87%; in assay [3], 98%; in assay [4], 75%; in assay [6], 89%; in assay [7], 98%; in assay [8], 93%.
Take `Nc1ncc(-c2ccc(C(=O)NCC3CCNCC3)cc2)nc1Oc1ccc2cc[nH]c2c1`: the IC50 was 3330 nM in assay [1] and 1120 nM in assay [5]. The inhibition in assay [2] came to 94%; in assay [3], 98%; in assay [4], 96%; in assay [6] it was 92%; in assay [7], 97%; in assay [8], 94%.
Regarding `Nc1ncc(-c2ccc(C(=O)NCC3CCCN3)cc2)nc1Oc1ccc2cc[nH]c2c1` (stereo unspecified), the half-inhibitory concentration (IC50) came to 4270 nM in assay [1] and 960 nM in assay [5]. Also, the inhibition in assay [2] is 87%; in assay [3], 97%; in assay [4], 77%; in assay [6], 86%; in assay [7], 98%; in assay [8], 100%.
On to `CC(Oc1nc(-c2ccc(C(=O)NCC3CCCNC3)cc2)cnc1N)c1c(Cl)cccc1Cl` (stereo unspecified), for which the IC50 came out at 1210 nM in assay [1] and 1130 nM in assay [5]. Further, the inhibition in assay [2] was 11%; in assay [3], 42%; in assay [4] it was 53%; in assay [6], 45%; in assay [7], 60%; in assay [8], 61%.
As for `Nc1ncc(-c2ccc(C(=O)NC3CCNCC3)cc2)nc1Oc1ccc2cc[nH]c2c1`, the IC50 in assay [1] worked out at 5520 nM; in assay [5] it was 800 nM. For the same molecule, the inhibition in assay [2] came to 85%; in assay [3], 99%; in assay [4] it was 73%; in assay [6], 98%; in assay [7], 98%; in assay [8], 102%.
As for `Nc1ncc(-c2ccc(C(=O)N[C@@H]3CCNC3)cc2)nc1Oc1ccc2cc[nH]c2c1`, the IC50 in assay [1] came to 13700 nM; in assay [5], 610 nM. In addition, the inhibition stood at 84% in assay [2]; 37% in assay [3]; 65% in assay [4]; 100% in assay [6]; 96% in assay [7]; 86% in assay [8].
For `Nc1ncc(-c2ccc(C(=O)NCC3CCCNC3)cc2)nc1Oc1ccc2cc[nH]c2c1` (stereo unspecified), the IC50 was 7090 nM in assay [1] and 890 nM in assay [5]. Further, the inhibition in assay [2] was determined as 81%; in assay [3] it was 98%; in assay [4] it was 65%; in assay [6] it was 101%; in assay [7], 98%; in assay [8], 99%.
